Laboratory results: patent US5043328A, “Formulations containing unsaturated fatty acids for the synthesis of prostaglandins and hydroxy-fatty acids in biological systems” (priority 1986, dated 1991)
“Also recorded” adds a separate entry of the source. Where two headings read alike, the source gives them in different places.

Tests used:
[1] = molecular target: T1, enzyme (from seminal vesicles of sheep) (Ovis aries, UniProt P05979); details: for PGD2 % / PGE2 % / PGF2alpha %: share of total prostaglandin (=100%)
T1 sequence (P05979 25-600): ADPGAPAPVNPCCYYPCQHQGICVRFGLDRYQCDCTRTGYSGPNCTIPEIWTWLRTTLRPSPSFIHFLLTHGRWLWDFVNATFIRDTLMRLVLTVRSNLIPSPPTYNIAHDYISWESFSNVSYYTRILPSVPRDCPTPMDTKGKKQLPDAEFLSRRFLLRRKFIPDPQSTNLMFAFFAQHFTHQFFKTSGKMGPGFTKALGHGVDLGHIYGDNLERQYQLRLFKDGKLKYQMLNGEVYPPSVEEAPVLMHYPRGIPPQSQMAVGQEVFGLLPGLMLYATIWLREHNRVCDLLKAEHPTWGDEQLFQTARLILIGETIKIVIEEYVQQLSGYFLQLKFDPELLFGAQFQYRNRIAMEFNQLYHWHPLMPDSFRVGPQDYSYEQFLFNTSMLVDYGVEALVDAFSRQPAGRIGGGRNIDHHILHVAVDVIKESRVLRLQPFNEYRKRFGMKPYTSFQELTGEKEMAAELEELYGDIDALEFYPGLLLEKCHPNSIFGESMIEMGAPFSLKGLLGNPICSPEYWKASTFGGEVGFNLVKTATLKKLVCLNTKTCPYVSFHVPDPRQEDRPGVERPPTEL
Protocol: Method 2: Prostaglandin Synthesis
0.3 ml of 0.03M potassium phosphate buffer of pH=8.0 contains 0.5 mg of enzyme (from seminal vesicles of sheep) (Biochemistry 10 (1971) 2372) or homogenate of the inner kidney medulla (Life Sciences 26 (1980) 765), 2.75 μg of ^14 C-arachidonic acid (0.5 μCi) and 0.5 mg of stimulator, and, if appropriate, 0.5 mg of stabilizer substance (see Table 1). After 10 minutes' incubation at 37° C., the reaction is stopped with 0.05 ml of 1.2M citric acid and the mixture is extracted with twice 0.5 ml of ethyl acetate, the combined extracts are freed of solvent, and the residue is dissolved in 0.2 ml of methanol, diluted 1:1 with water and separated by HPLC (nucleosil C-18 column, 125×4.6 mm, from Bischoff, Leonberg, Germany, solvent 300 ml of acetonitrile, 700 ml of water and 1 ml of glacial acetic acid and after 30 minutes pure methanol). The separation of the radioactive fractions is followed by a monitor (LB 504 from Berthold, Wildbad, Germany). The products formed, such as 6-keto-prostaglandin F2alpha, prostaglandin E2, prostaglandin F2alpha and prostaglandin D2, are separated under these conditions.
The prostaglandins PGE2, PGF2 alpha and PGD2 as products from arachidonic acid where quantified by means of method 2, and the sum was related as "total prostaglandin" to 100%. The quantity of "total prostaglandin" formed without the addition of a stimulator was set at f=1; the quantity formed after stimulation was related thereto. f=2 or f=3 therefore means twice or three times the stimulation under the conditions of method 2. The stability of the sample was investigated by means of method 1 (right-hand column). […] Values greater than 25-28% therefore represent a stabilization, and values smaller than 25-28% represent a destabilization. Example No. 1 was carried out without a stimulator. […] The substances test with respect to stabilization (see Method 1 for quantities) were: A) aqueous solution without stabilizer addition, B) ethanolic solution without further addition, C) pyridine solution, D) with rutin, predissolved in dimethyl sulfoxide, dimethyl sulfoxide then stripped off, E) like B) with lecithin, ethanol stripped off, F) like A) with cytochrome c from horse heart (from Boehringer, Mannheim, Germany), G) like A) with methemoglobin (human) (from Sigman, Munich, Germany), H) like A) with bovine serum albumin (from Calbiochem, Frankfurt, Germany), J) like A) or B), but solvent stripped off, K) like J) with cytochrome c, L) like J) with hemoglobin (human) (from Behringwerke, Marburg, Germany), and M) like J) with human serum albumin (from Behringwerke, Marburg, Germany).

[2] = for Stability (% of remaining arachidonic acid by Method 1): 24 h 37° C.; for undesired decomposition / byproducts of polyunsaturated fatty acid (arachidonic acid) with added stimulator: aqueous medium; for undesired decomposition / byproducts of polyunsaturated fatty acid (arachidonic acid) with added stimulator / effect of solvent used instead of water on formation of undesired byproducts: result in words; for effect of solvent used instead of water on formation of undesired byproducts: fatty acid with stimulator; for Stabilization (% remaining unsaturated fatty acid by Method 1): 1440 min
Protocol: Method 1: Investigation of the Stability of Unsaturated Fatty Acids in the Formulations
The stabilizing action of substances on polyunsaturated fatty acids was investigated as follows:
Test A for Water-Soluble Substances:
0.125 mg of unsaturated fatty acid or Na salt (see tables) (sodium arachidonate, from Sigma, Munich, Germany) is dissolved in 0.05 ml of water. 0.2 ml of aqueous solution which contains 2 mg of stabilizer and can additionally contain 2 mg of stimulator is mixed in (cf. Table 1), 0.1 ml is then taken out immediately, extracted and analysed (see below). Further processing according to modification 1 or 2.
Modification 1 for Aqueous Solutions
After 24 hours incubation at 37° C., 0.1 ml is again taken, extracted and analysed (see below).
Modification 2 for Solid Mixtures (Lyophilisates)
The test solution is lyophilized, the lyophilisate is incubated for 24 hours at 37° C. and then dissolved again in the previous quantity of water, and 0.1 ml is taken, extracted and analysed (see below).
Test B for Water-Insoluble Substances:
0.125 mg of unsaturated fatty acid (arachidonic acid, 5,8,11,14,17-eicosapentaenoic acid or 8,11,14-eicosatrienoic acid, from Sigma, Munich) is dissolved in 0.05 ml of ethanol or dimethyl sulfoxide. 0.2 ml of ethanol (or dimethyl sulfoxide) which contains 2 mg of stabilizer and can additionally contain 2 mg of the stimulator (cf. Table 1) is added thereto, and 0.1 ml is taken immediately and, as below, extracted and analysed. Further treatment according to modification 1 or 2.
Modification 1 for Solutions
After 24 hours' incubation at 37° C., 0.1 ml is again taken, mixed with 0.1 ml of water, extracted and analysed.
Modification 2 for Solid Mixtures
The remaining solution is freed of solvent, incubated for 24 hours at 37° C. and then dissolved again in 0.15 ml of solvent, and 0.1 ml is taken, mixed with 0.1 ml of water, extracted and analysed.
0.05 ml of 1.2M aqueous citric acid solution is added to the samples obtained, and the samples are extracted with twice 0.5 ml of ethyl acetate, the ethyl acetate is removed from the combined extracts and the residue is dissolved in 0.8 ml of methanol and analysed by means of high-pressure liquid chromatography (HPLC) (Rad Pak C-18 column, 100×8 mm, from Waters, Konigstein, Germany, 1.5 ml/minute, solvent 800 ml of methanol, 200 ml of water and 0.1 ml of glacial acetic acid). The separation is monitored with a commercially available UV detector at 206 nm.
The prostaglandins PGE2, PGF2 alpha and PGD2 as products from arachidonic acid where quantified by means of method 2, and the sum was related as "total prostaglandin" to 100%. The quantity of "total prostaglandin" formed without the addition of a stimulator was set at f=1; the quantity formed after stimulation was related thereto. f=2 or f=3 therefore means twice or three times the stimulation under the conditions of method 2. The stability of the sample was investigated by means of method 1 (right-hand column). […] Values greater than 25-28% therefore represent a stabilization, and values smaller than 25-28% represent a destabilization. Example No. 1 was carried out without a stimulator.

[3] = A) aqueous solution without stabilizer addition
[4] = D) with rutin, predissolved in dimethyl sulfoxide, dimethyl sulfoxide then stripped off
[5] = G) like A) with methemoglobin (human)
[6] = H) like A) with bovine serum albumin

NCCc1c[nH]c2ccccc12 [Example 23]
PGD2 % ([1]; Table 1): 16% | PGE2 % ([1]; Table 1): 81% | PGF2alpha % ([1]; Table 1): 3% | Stability (% of remaining arachidonic acid by Method 1) [2, 3]: 20% | Stability (% of remaining arachidonic acid by Method 1) [2, 4]: 100% | Stability (% of remaining arachidonic acid by Method 1) ([2]; F) like A) with cytochrome c from horse heart): 98% | Stability (% of remaining arachidonic acid by Method 1) [2, 5]: 97% | Stability (% of remaining arachidonic acid by Method 1) [2, 6]: 100%

O=C1N[C@@H](Cc2c[nH]c3ccccc23)C(=O)N[C@H]1Cc1ccc(O)cc1 [Example 32, Cyclo-TrpTyr]
Stimulation ([1]; Table 1, result in words): positive | Stabilization [2]: positive

CNCC(O)c1ccc(O)c(O)c1 (centres unmarked) [adrenalin, reference compound]
undesired decomposition / byproducts of polyunsaturated fatty acid (arachidonic acid) with added stimulator [2]: considerably accelerated

O=C(O)C=Cc1ccc(O)c(O)c1 [Example 17]
PGD2 % ([1]; Table 1): 17% | PGE2 % ([1]; Table 1): 70% | PGF2alpha % ([1]; Table 1): 13% | relative total prostaglandin f ([1]; seminal vesicle enzyme, 10 min, pH 8): 5.7 | Stability (% of remaining arachidonic acid by Method 1) [2, 3]: 19% | Stability (% of remaining arachidonic acid by Method 1) [2, 4]: 99% | Stability (% of remaining arachidonic acid by Method 1) [2, 5]: 95% | Stability (% of remaining arachidonic acid by Method 1) [2, 6]: 99% | Stability (% of remaining arachidonic acid by Method 1) ([2]; J) like A) or B), but solvent stripped off): 16% | Stability (% of remaining arachidonic acid by Method 1) ([2]; M) like J) with human serum albumin): 98%

polyethylene glycol
effect of solvent used instead of water on formation of undesired byproducts [2]: do not arise

CCO [ethanol]
effect of solvent used instead of water on formation of undesired byproducts [2]: do not arise

OC[C@@H](O)[C@@H](O)[C@H](O)[C@@H](O)CO [sorbitol, reference compound]
stabilization of aqueous mixtures of unsaturated fatty acid and stimulators [2]: not stabilizing

C[S+](C)[O-] [dimethyl sulfoxide]
effect of solvent used instead of water on formation of undesired byproducts [2]: do not arise

N[C@@H](Cc1c[nH]c2ccc(O)cc12)C(=O)O [5-hydroxytryptophan, reference compound]
undesired decomposition / byproducts of polyunsaturated fatty acid (arachidonic acid) with added stimulator [2]: considerably accelerated

c1ccncc1 [pyridine]
effect of solvent used instead of water on formation of undesired byproducts [2]: additional destabilizing effect

CCC(C)O (centres unmarked) [Example 2-butanol, 2-butanol]
effect of solvent used instead of water on formation of undesired byproducts [2]: additional destabilizing effect

OC[C@H]1O[C@@H]2O[C@H]3[C@H](O)[C@@H](O)[C@@H](O[C@H]4[C@H](O)[C@@H](O)[C@@H](O[C@H]5[C@H](O)[C@@H](O)[C@@H](O[C@H]6[C@H](O)[C@@H](O)[C@@H](O[C@H]7[C@H](O)[C@@H](O)[C@@H](O[C@H]1[C@H](O)[C@H]2O)O[C@@H]7CO)O[C@@H]6CO)O[C@@H]5CO)O[C@@H]4CO)O[C@@H]3CO [Example 62, alpha-Dextrin (Cyclohexaamylose)]
Stabilization (% remaining unsaturated fatty acid by Method 1) [2]: 60%

OC[C@H]1O[C@@H]2O[C@H]3[C@H](O)[C@@H](O)[C@@H](O[C@H]4[C@H](O)[C@@H](O)[C@@H](O[C@H]5[C@H](O)[C@@H](O)[C@@H](O[C@H]6[C@H](O)[C@@H](O)[C@@H](O[C@H]7[C@H](O)[C@@H](O)[C@@H](O[C@H]8[C@H](O)[C@@H](O)[C@@H](O[C@H]9[C@H](O)[C@@H](O)[C@@H](O[C@H]1[C@H](O)[C@H]2O)O[C@@H]9CO)O[C@@H]8CO)O[C@@H]7CO)O[C@@H]6CO)O[C@@H]5CO)O[C@@H]4CO)O[C@@H]3CO [Example 64, gamma-Dextrin (Cyclooctaamylose)]
Stabilization (% remaining unsaturated fatty acid by Method 1) [2]: 75%

CCCCC/C=C\C/C=C\C/C=C\C/C=C\CCCC(=O)O [arachidonic acid]
Stability (% of remaining arachidonic acid by Method 1) [2, 3]: 25-28%

N[C@@H](Cc1ccc(O)cc1)C(=O)O [tyrosine]
undesired decomposition / byproducts of polyunsaturated fatty acid (arachidonic acid) with added stimulator [2]: completely stable

O=C[C@H](O)[C@@H](O)[C@H](O)[C@H](O)CO [glucose, reference compound]
stabilization of aqueous mixtures of unsaturated fatty acid and stimulators [2]: not stabilizing

Oc1ccc(O)cc1 [hydroquinone, reference compound]
undesired decomposition / byproducts of polyunsaturated fatty acid (arachidonic acid) with added stimulator [2]: markedly greater quantity; also recorded: considerably accelerated

N[C@@H](Cc1c[nH]c2ccccc12)C(=O)O [tryptophan, reference compound]
undesired decomposition / byproducts of polyunsaturated fatty acid (arachidonic acid) with added stimulator [2]: considerably accelerated

OCC(O)CO [glycerol]
effect of solvent used instead of water on formation of undesired byproducts [2]: do not arise

NC[C@H](O)c1ccc(O)c(O)c1 [noradrenalin, reference compound]
undesired decomposition / byproducts of polyunsaturated fatty acid (arachidonic acid) with added stimulator [2]: considerably accelerated

rhamnoglucose [reference compound]
stabilization of aqueous mixtures of unsaturated fatty acid and stimulators [2]: not stabilizing
